A word on the melting point: it is the temperature of the solid-liquid transition.

The structures appear in SMILES notation.

Results on six compounds are retold here after patent US20080161338A1, “Novel Pyrrolodihydroisoquinolines as Pde 10 Inhibitors” (ALTANA PHARMA AG, priority 2005, published 2008).

As to `COc1cc2c(cc1OC)-c1c(-c3nc(C)no3)c(-c3cc(C)c(O)c(C)c3)c(C)n1C(C)C2` (racemic) [Example 1, (5RS)-4-[8,9-Dimethoxy-3,5-dimethyl-1-(3-methyl-[1,2,4]oxadiazol-5-yl)-5,6-dihydro-pyrrolo[2,1-a]isoquinolin-2-yl]-2,6-dimethyl-phenol], the melting point lay within 182 to 184 °C.
`COc1cc2c(cc1OC)-c1c(-c3nc(-c4ccccc4)no3)c(-c3cc(C)c(O)c(C)c3)c(C)n1C(C)C2` (racemic) [Example 3, (5RS)-4-[8,9-Dimethoxy-3,5-dimethyl-1-(3-phenyl-[1,2,4]oxadiazol-5-yl)-5,6-dihydro-pyrrolo[2,1-a]isoquinolin-2-yl]-2,6-dimethyl-phenol] yielded a melting point of 203 to 206 °C.
For `COc1cc2c(cc1OC)-c1c(-c3nc(C4CC4)no3)c(-c3cc(C)c(O)c(C)c3)c(C)n1C(C)C2` (stereo not drawn) [Example 2, (5RS)-4-[1-(3-Cyclopropyl-[1,2,4]oxadiazol-5-yl)-8,9-dmethoxy-3,5-dimethyl-5,6-dihydro-pyrrolo[2,1-a]isoquinolin-2-yl]-2,6-dimethyl-phenol], the melting point lay in the range of 174 to 175 °C.
Consider `COc1cc2c(cc1OC)-c1c(-c3nc(-c4ccccc4)no3)c(-c3cc(C)c(O)c(C)c3)c(C)n1CC2` [Example 4, 4-[8,9-Dimethoxy-3-methyl-1-(3-phenyl-[1,2,4]oxadiazol-5-yl)-5,6-dihydro-pyrrolo[2,1-a]isoquinolin-2-yl]-2,6-dimethyl-phenol], for which the melting point is 191 to 193 °C.
Consider `COc1cc2c(cc1OC)-c1c(-c3nc(C)no3)c(-c3cc(C)c(O)c(C)c3)c(C)n1CC2` [Example 5, 4-[8,9-Dimethoxy-3-methyl-1-(3-methyl-[1,2,4]oxadiazol-5-yl)-5,6-dihydro-pyrrolo[2,1-a]isoquinolin-2-yl]-2,6-dimethyl-phenol], for which the melting point lay within 218 to 221 °C.
The same measure for `COc1cc2c(cc1OC)-c1c(-c3ncc(C)o3)c(-c3cc(C)c(O)c(C)c3)c(C)n1CC2` [Example 6, 4-[8,9-Dimethoxy-3-methyl-1-(5-methyl-oxazol-2-yl)-5,6-dihydro-pyrrolo[2,1-a]isoquinolin-2-yl]-2,6-dimethyl-phenol]: 222 to 224 °C.
